The record followed here is PMC8032764 (Scientific Reports, 2021).

Like-named read-outs stand apart in the source and are kept apart here.

In general, % Inhibition refers to the change of the read-out against control, counted positive when it falls.

For test [1], the system named is T1, Benzodiazepine (peripheral).
T1 construct: tissue Eurofins Cerep SA; host or cells: rat heart
The test is described as follows: Cerep binding. Particulars: 10 μM; [3H]PK 11195; rat heart.

The target of another test is T2, GABAA-α5 receptors (Rattus norvegicus, UniProt P18508+P19969).
T2 construct: from tissue; host or cells: rat brain (hippocampus), in vivo with ex vivo autoradiography
In words: In vivo [3H]-Ro 15-4513 binding with ex vivo autoradiography (receptor occupancy). Particulars: hippocampus, Hill fit. On the procedure: Brains and blood were collected from each animal. Brains were divided in two halves along their sagittal axis and frozen in dry ice. […] Half of the brain was used for autoradiography, as described earlier. […] The percentage of receptor occupancy (y) was calculated from: y=1001-Sbasmisanil/Svehicle.
The curve was fitted to the experimental results using the Hill equation (Eq. (1) with Hill coefficient D = 1).

T2 sequence (P19969 32-464 limits assumed): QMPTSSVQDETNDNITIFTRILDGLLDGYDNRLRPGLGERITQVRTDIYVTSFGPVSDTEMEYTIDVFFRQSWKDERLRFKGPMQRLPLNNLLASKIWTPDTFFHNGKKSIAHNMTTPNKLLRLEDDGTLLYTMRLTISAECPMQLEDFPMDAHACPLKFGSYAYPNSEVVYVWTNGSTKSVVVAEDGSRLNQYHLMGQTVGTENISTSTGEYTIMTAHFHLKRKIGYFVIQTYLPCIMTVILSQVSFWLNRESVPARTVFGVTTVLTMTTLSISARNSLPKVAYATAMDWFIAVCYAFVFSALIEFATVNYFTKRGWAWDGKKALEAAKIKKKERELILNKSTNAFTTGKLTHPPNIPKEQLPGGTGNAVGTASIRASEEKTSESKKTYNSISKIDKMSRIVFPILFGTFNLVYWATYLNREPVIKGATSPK
T2 sequence (P18508 39-466): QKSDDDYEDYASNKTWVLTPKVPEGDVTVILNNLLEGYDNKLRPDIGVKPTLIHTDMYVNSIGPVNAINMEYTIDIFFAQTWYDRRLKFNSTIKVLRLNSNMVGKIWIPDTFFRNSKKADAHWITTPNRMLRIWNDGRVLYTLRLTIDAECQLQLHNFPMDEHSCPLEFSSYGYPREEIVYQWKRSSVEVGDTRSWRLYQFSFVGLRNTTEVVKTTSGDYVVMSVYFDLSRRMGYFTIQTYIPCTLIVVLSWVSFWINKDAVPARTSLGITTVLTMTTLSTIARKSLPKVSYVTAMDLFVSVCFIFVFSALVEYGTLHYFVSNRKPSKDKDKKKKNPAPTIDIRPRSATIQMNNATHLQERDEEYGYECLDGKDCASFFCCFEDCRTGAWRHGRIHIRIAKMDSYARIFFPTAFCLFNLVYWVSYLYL
T2 sequence (P63079 26-473 partner): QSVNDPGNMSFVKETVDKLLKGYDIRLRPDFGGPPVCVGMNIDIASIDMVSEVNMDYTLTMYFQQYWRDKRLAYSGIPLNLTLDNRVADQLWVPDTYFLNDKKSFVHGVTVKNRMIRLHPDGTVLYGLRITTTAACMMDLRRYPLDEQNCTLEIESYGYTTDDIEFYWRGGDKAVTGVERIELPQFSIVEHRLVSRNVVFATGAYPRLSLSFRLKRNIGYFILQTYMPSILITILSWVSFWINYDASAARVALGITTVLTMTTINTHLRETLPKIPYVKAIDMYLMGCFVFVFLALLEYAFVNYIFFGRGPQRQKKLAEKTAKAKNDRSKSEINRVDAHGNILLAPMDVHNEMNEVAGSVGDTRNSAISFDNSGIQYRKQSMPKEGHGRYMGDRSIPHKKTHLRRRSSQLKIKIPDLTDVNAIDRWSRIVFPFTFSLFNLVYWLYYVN

Regarding `Cc1onc(-c2ccc(F)cc2)c1COc1ccc(C(=O)N2CCS(=O)(=O)CC2)cn1` [basmisanil], the “% Inhibition” value in test [1] was -10%. The EC50 was 171 ± 16 nM on GABAA-α5 receptors (free plasma, read-out: free plasma concentration for half-maximal receptor occupancy (EC50)) and 1220 nM on GABAA-α5 receptors (total plasma, read-out: plasma level for half-maximal receptor occupancy (EC50) (converted)).
